{
  "source": "paper PMC7772889",
  "about": "“Integrating biokinetics and in vitro studies to evaluate developmental neurotoxicity induced by chlorpyrifos in human iPSC-derived neural stem cells undergoing differentiation towards neuronal and glial cells” (Reproductive Toxicology (Elmsford, N.y.), 2020)",
  "key": {"[1]": {"test_system": "hiPSC-derived NSCs undergoing differentiation", "design": "method as in PMID 32093744", "conditions": "14-day treatment; cited from earlier work"}, "[2]": {"experiment": "Chemical solubility and stability / recovery from medium (HPLC-UV)", "assay_type": "physicochemical", "description": "The solubility and stability of CPF in water, medium and DMSO (the vehicle used to prepare stock solutions), were checked in preliminary assays, mimicking the actual experimental conditions: maximum concentration used; 37 °C; controlled pH; different incubation times. Samples in amber glass vials with screw caps were stored at −80 °C until the analysis for quantifying CPF by means of HPLC-UV was carried out.\nPlastic-bound fraction was injected as such."}, "[3]": {"test_system": "hiPSC-derived NSCs undergoing differentiation towards neurons and astrocytes", "experiment": "In vitro biokinetics of CPF and metabolites in medium, cells and plastic (HPLC-UV)", "description": "The nominal concentration causing 5 % decrease of viability (IC5) was previously identified, extrapolating a dose response curves obtained with six CPF nominal concentrations (0.49, 1.95, 7.81, 31.25, 125, and 500 μM) vs solvent control (0.1 % DMSO) after 14-day treatment by means of resazurin test (CellTiter-Blue® Reagent).\nCPF stock solutions were prepared in DMSO and stored in glass at −20 °C until the beginning of each experiment. Freshly prepared treatment solutions were obtained after the dilution of stock solutions in a ratio of […] in serum-free culture medium, keeping DMSO concentration at 0.1 %. Aliquots of the stock and daily treatment solutions (considered as the starting solutions) were stored at −80 °C until HPLC analysis.\nCells (about 21,000 cells/cm^2), seeded on 6 well PDL- and reduced growth factor Matrigel coated plates, were treated during the differentiation process, starting from day 7 of differentiation up to day 21, with treatment/medium refreshed twice a week (Fig. 2). Exposure to CPF of cells or pre-coated wells (without cells) was initiated by adding 2 mL per well of the corresponding treatment solutions or the vehicle (control wells). Four biological replicates were carried out.\nA first set of experiments was used to fine tune the experimental conditions, including time points and exposure conditions, taking into account possible metabolism, bioaccumulation and/or physical sequestration processes. All the fractions (i.e., medium, cells, plastic and matrix-bound fractions) were collected, at the first and last day of treatment, at different time points (i.e., 1, 3, 6, 24 h) selected on the basis of the intrinsic features of the compound and the cellular model. At each time point, the medium was transferred into amber glass vials and stored at −80 °C until HPLC analysis. Cells were washed twice with PBS (2 mL/well); to avoid dehydration of the cells, an aliquot of PBS was kept in each well. PBS was then removed, cells were scraped from the wells in 250 μL MeOH, additional 100 μL MeOH were added for washing and all the content was transferred into amber glass vials. The same procedure was applied also to the wells used for measuring matrix-bound material (without cells). Cells were then sonicated until they were fully homogenized (about 15 min). All fractions, including DMSO from control wells and MeOH used to measure possible plastic binding, were stored at −80 °C until HPLC analysis. Four biological replicates were carried out.\nAll samples from kinetic experiments were analysed using high-performance liquid chromatography (HPLC), as previously described, to quantify CPF and its metabolites. Prior to analysis, one volume of the collected medium samples was mixed with three volumes of MeOH. All the mixtures, including cell and matrix-bound samples, were vortexed for 30 s and then centrifuged (Eppendorf 5417R; 4 °C, 2500 rpm) for 10 min. Preliminary assays were conducted to evaluate CPF and its metabolite recovery after the solvent extraction procedure from each type of sample. […] Plastic-bound fraction was injected as such.\nThe HPLC system included a PerkinElmer Series 200 analytical pump, a Restek™ Pinnacle ODS Amine C18 column, a PerkinElmer LC 235 Diode Array Detector and the PerkinElmer Totalchrom™ 3.1.2 software for data acquisition and evaluation. For analysing CPF, CPFO and TCP, a gradient elution was applied at a flow rate of 1.0 mL/min, starting at 80:20 % methanol /buffer (Tris /HCl 50 mM EDTA 1 mM pH 7.4) and reaching after 4 min a percentage of 70:30 (v/v), respectively, maintained for 16 min. Then, the gradient returned to the initial concentration before the next sample was injected."}, "[4]": {"test_system": "CYP and GST gene expression in hiPSC-derived NSCs undergoing differentiation", "experiment": "qPCR analysis of CYP and GST gene expression after CPF treatment", "assay_type": "cell-based, human", "conditions": "21 μM CPF", "description": "Analysis of gene expression by qPCR was performed in hiPSC-derived NSCs undergoing differentiation upon single and repeated treatment with 21 μM CPF or solvent control (0.1 % DMSO), collecting samples after 1, 3, 6 and 24 h (as shown in Fig. 2). RNA was isolated using the RNAqueous®-Micro Kit (ThermoFisher) according to manufacturer's instructions, and 500 ng of total RNA was reverse transcribed by using the High Capacity cDNA Reverse Transcription Kit (as directed, ThermoFisher).\nqPCR reactions were run in duplicate using TaqMan® Gene Expression Master Mix (ThermoFisher) and the TaqMan gene expression assays shown in Table 1 (all from ThermoFisher).\nFluorescent emission was recorded in real-time using the ABI PRISM Sequence Detection System 7900HT (ThermoFisher). PCR amplification conditions consisted of 45 cycles with primers annealing at 60 °C. Relative RNA quantities were normalized to the reference genes GAPDH and Bactin and untreated cells were used to set calibrating conditions (ΔΔCt Method). Three biological replicates were performed."}},
  "data": [
    {"smiles": "CCOP(=S)(OCC)Oc1nc(Cl)c(Cl)cc1Cl", "note": "[CPF, Chlorpyrifos]", "values": [
      {"measurement": "in vitro nominal LOAEC for synaptogenesis", "setting": "[1]", "result": 21, "unit": "µM"},
      {"measurement": "Solubility and stability in aqueous medium solutions and DMSO", "setting": "[2]; maximum concentration, 37 °C, controlled pH, different incubation times", "result": "soluble and chemically stable"},
      {"measurement": "Recovery from medium", "setting": "[2]; serum-free medium", "result": "108.2 ± 18.6", "unit": "%"},
      {"measurement": "Intracellular levels of CPF", "setting": "[3]; first day of treatment, 1 h until 24 h, 21 μM nominal", "result": "2.5–4.7 nmol/well"},
      {"measurement": "CPF in the medium as % of the initial CPF amount", "setting": "[3]; first day of treatment, 24 h", "result": "around 41%"},
      {"measurement": "CPF in the medium", "setting": "[3]; first day of treatment, 24 h, 21 μM nominal", "result": "18.0 ± 6.9", "unit": "nmol/well"},
      {"measurement": "Mass balance (% of the applied CPF amount)", "setting": "[3]; first day of treatment, first three time points (1, 3 and 6 h)", "result": "around 95%"},
      {"measurement": "Actual concentration in the medium at the beginning of the experiment (treatment solution)", "setting": "[3]; nominal concentration 21 μM (IC5)", "result": "24.5 ± 5.6", "unit": "µM"},
      {"measurement": "Amount of CPF in the cell compartment, last day compared to first day of treatment", "setting": "[3]; p < 0.01", "result": "doubled"},
      {"measurement": "Mass balance", "setting": "[3]; repeated exposure, within the first 6 h", "result": "110 to 120", "unit": "%"},
      {"measurement": "CYP-2C9 gene expression", "setting": "[4]; first day of treatment", "result": "tendency towards upregulation"},
      {"measurement": "GST gene expression", "setting": "[4]; first day of treatment", "result": "did not change"},
      {"measurement": "CYP-1A1 gene expression", "setting": "[4]; first day of treatment, after 3 h, 6 h and 24 h", "result": "Up-regulation"},
      {"measurement": "GST-A4 gene expression", "setting": "[4]; first day, after 6 h treatment", "result": "modest decrease"},
      {"measurement": "CYP gene expression", "setting": "[4]; repeated treatment", "result": "did not significantly change"},
      {"measurement": "GST gene expression (all analysed GST genes)", "setting": "[4]; repeated treatment", "result": "significant downregulation"},
      {"measurement": "CYP-2C19 gene expression", "setting": "[4]; repeated treatment, after 1 h", "result": "transient upregulation"}
    ]}
  ]
}
